Test results reported in PubChem BioAssay AID270 (DTP/NCI, 2004).
Where “and” joins values, the source holds several entries; their conditions need not be identical. Equal values may be shown once. Results filed as inconclusive are left out.

Tested on: BDF1 mice, s.c. Lewis lung carcinoma, T/C %
Assay: NCI In Vivo Anticancer Drug Screen. Data for tumor model Lewis Lung Carcinoma (subcutaneous) in B6D2F1 (BDF1) mice
In short: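 Transplanted tumors grown in mice; compound vs vehicle dosing; endpoint survival or tumor size; ratio T/C.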

[1] = endpoint: mean tumor weight, dose: 50.0 mg/kg/injection, schedule: Q01DX011 (ip), vehicle: saline, higher = larger tumour
[2] = endpoint: mean tumor weight, dose: 100.0 mg/kg/injection, schedule: Q01DX011 (ip), vehicle: saline, higher = larger tumour
[3] = endpoint: mean tumor weight, dose: 200.0 mg/kg/injection, schedule: Q01DX011 (ip), vehicle: saline, higher = larger tumour

Compound: COc1cccc(/C=N\NC(=O)C(C)SC(C)C(=O)N/N=C/c2cccc(OC)c2)c1 (stereo not drawn)
- T/C (endpoint: mean tumor weight, dose: 25.0 mg/kg/injection, schedule: Q01DX011 (ip), vehicle: carboxymethylcellulose (CMC), higher = larger tumour): 82 % of control
- T/C (endpoint: mean tumor weight, dose: 50.0 mg/kg/injection, schedule: Q01DX011 (ip), vehicle: carboxymethylcellulose (CMC), higher = larger tumour): 113 % of control
- T/C (endpoint: mean tumor weight, dose: 100.0 mg/kg/injection, schedule: Q01DX011 (ip), vehicle: carboxymethylcellulose (CMC), higher = larger tumour): 67 % of control
- T/C (endpoint: mean tumor weight, dose: 200.0 mg/kg/injection, schedule: Q01DX011 (ip), vehicle: carboxymethylcellulose (CMC), higher = larger tumour): 101 % of control
- T/C (endpoint: mean tumor weight, dose: 400.0 mg/kg/injection, schedule: Q01DX011 (ip), vehicle: carboxymethylcellulose (CMC), higher = larger tumour): 99 % of control
- T/C (endpoint: mean tumor weight, dose: 600.0 mg/kg/injection, schedule: Q01DX011 (ip), vehicle: carboxymethylcellulose (CMC), higher = larger tumour): 85 % of control

Compound: Cc1cc(CCl)c(C)c(Br)c1C
- T/C (endpoint: median survival time, dose: 1.5 mg/kg/injection, schedule: Q01DX009 (ip), vehicle: Klucel (hydroxypropylcellulose) (HPC), higher = longer survival): 108 % of control
- T/C (endpoint: median survival time, dose: 3.0 mg/kg/injection, schedule: Q01DX009 (ip), vehicle: Klucel (hydroxypropylcellulose) (HPC), higher = longer survival): 120 % of control
- T/C (endpoint: median survival time, dose: 6.0 mg/kg/injection, schedule: Q01DX009 (ip), vehicle: Klucel (hydroxypropylcellulose) (HPC), higher = longer survival): 95 % of control

Compound: C=C1C(=O)O[C@@H]2/C=C(/C)[C@@]3(O)C=C[C@](C)(C[C@@H](OC(=O)/C(=C\C)COC(C)=O)[C@@H]12)O3
- T/C (endpoint: median survival time, dose: 0.03 mg/kg/injection, schedule: Q01DX009 (ip), vehicle: carboxymethylcellulose (CMC), higher = longer survival): 100 % of control
- T/C (endpoint: median survival time, dose: 0.06 mg/kg/injection, schedule: Q01DX009 (ip), vehicle: carboxymethylcellulose (CMC), higher = longer survival): 94 % of control
- T/C (endpoint: median survival time, dose: 0.12 mg/kg/injection, schedule: Q01DX009 (ip), vehicle: carboxymethylcellulose (CMC), higher = longer survival): 113 % of control
- T/C (endpoint: median survival time, dose: 0.25 mg/kg/injection, schedule: Q01DX009 (ip), vehicle: carboxymethylcellulose (CMC), higher = longer survival): 87 % of control
- T/C (endpoint: median survival time, dose: 0.5 mg/kg/injection, schedule: Q01DX009 (ip), vehicle: carboxymethylcellulose (CMC), higher = longer survival): 100 % of control

Compound: COC(=O)C1=C(C(=O)OC)C2CC3C4CC=C5CC(OC(C)=O)CCC5(C)C4CCC3(C)C2=C(OC(C)=O)C1 (stereo not drawn)
- T/C (endpoint: mean tumor weight, dose: 62.5 mg/kg/injection, schedule: Q01DX011 (sc), vehicle: saline, higher = larger tumour): 105 % of control
- T/C (endpoint: mean tumor weight, dose: 125.0 mg/kg/injection, schedule: Q01DX011 (sc), vehicle: saline, higher = larger tumour): 99 % of control
- T/C (endpoint: mean tumor weight, dose: 250.0 mg/kg/injection, schedule: Q01DX011 (sc), vehicle: saline, higher = larger tumour): 97 % of control

Compound: CCCC(Sc1nc(N)nc2nc[nH]c12)C(=O)O (stereo not drawn)
- T/C (endpoint: mean tumor weight, dose: 5.0 mg/kg/injection, schedule: Q01DX011 (ip), vehicle: other, higher = larger tumour): 115 % of control
- T/C (endpoint: mean tumor weight, dose: 10.0 mg/kg/injection, schedule: Q01DX011 (ip), vehicle: other, higher = larger tumour): 58 % of control
- T/C (endpoint: mean tumor weight, dose: 20.0 mg/kg/injection, schedule: Q01DX011 (ip), vehicle: other, higher = larger tumour): 17 % of control
- T/C (endpoint: mean tumor weight, dose: 40.0 mg/kg/injection, schedule: Q01DX011 (ip), vehicle: other, higher = larger tumour): 49 % of control and 69 % of control
- T/C (endpoint: mean tumor weight, dose: 160.0 mg/kg/injection, schedule: Q01DX011 (ip), vehicle: other, higher = larger tumour): 64 % of control
- T/C (endpoint: mean tumor weight, dose: 320.0 mg/kg/injection, schedule: Q01DX011 (ip), vehicle: other, higher = larger tumour): 50 % of control and 69 % of control
- T/C (endpoint: mean tumor weight, dose: 640.0 mg/kg/injection, schedule: Q01DX011 (ip), vehicle: other, higher = larger tumour): 48 % of control

Compound: CC(C)c1ccc(O)c(=O)cc1
- T/C (endpoint: mean tumor weight, dose: 37.5 mg/kg/injection, schedule: Q01DX011 (ip), vehicle: carboxymethylcellulose (CMC), higher = larger tumour): 52 % of control
- T/C (endpoint: mean tumor weight, dose: 75.0 mg/kg/injection, schedule: Q01DX011 (ip), vehicle: carboxymethylcellulose (CMC), higher = larger tumour): 62 % of control

Compound: O=c1cc(-c2ccc(O)cc2)oc2c(O)c(O)c(O)c(O)c12
- T/C [1]: 70 % of control
- T/C [2]: 73 % of control
- T/C [3]: 43 % of control

Compound: CCCCCCCCCCCC[N+](C)(C)Cc1ccccc1
- T/C (endpoint: median survival time, dose: 0.12 mg/kg/injection, schedule: Q01DX009 (ip), vehicle: saline, higher = longer survival): 111 % of control
- T/C (endpoint: median survival time, dose: 0.25 mg/kg/injection, schedule: Q01DX009 (ip), vehicle: saline, higher = longer survival): 94 % of control
- T/C (endpoint: median survival time, dose: 1.0 mg/kg/injection, schedule: Q01DX009 (ip), vehicle: saline, higher = longer survival): 97 % of control
- T/C (endpoint: median survival time, dose: 2.0 mg/kg/injection, schedule: Q01DX009 (ip), vehicle: saline, higher = longer survival): 97 % of control
- T/C (endpoint: median survival time, dose: 4.0 mg/kg/injection, schedule: Q01DX009 (ip), vehicle: saline, higher = longer survival): 91 % of control
- T/C (endpoint: median survival time, dose: 125.0 micrograms/kg/injection, schedule: Q01DX009 (ip), vehicle: saline, higher = longer survival): 107 % of control
- T/C (endpoint: median survival time, dose: 250.0 micrograms/kg/injection, schedule: Q01DX009 (ip), vehicle: saline, higher = longer survival): 93 % of control
- T/C (endpoint: median survival time, dose: 1000.0 micrograms/kg/injection, schedule: Q01DX009 (ip), vehicle: saline, higher = longer survival): 103 % of control
- T/C (endpoint: median survival time, dose: 2000.0 micrograms/kg/injection, schedule: Q01DX009 (ip), vehicle: saline, higher = longer survival): 109 % of control
- T/C (endpoint: median survival time, dose: 4000.0 micrograms/kg/injection, schedule: Q01DX009 (ip), vehicle: saline, higher = longer survival): 107 % of control
- T/C (endpoint: median survival time, dose: 8000.0 micrograms/kg/injection, schedule: Q01DX009 (ip), vehicle: saline, higher = longer survival): 96 % of control

Compound: CC(O)CC1CCCN1C (stereo not drawn)
- T/C [1]: 208 % of control
- T/C [2]: 103 % of control
- T/C [3]: 179 % of control
